Measured values from ChEMBL document CHEMBL4609983, “Pan-specific and partially selective dye-labeled peptidic inhibitors of the polycomb paralog proteins” (Bioorg Med Chem, 2020).
Calls of active or inactive are those of the source. Non-standard residues stand in square brackets, D forms with d. Residues, ends and D or L forms follow the SMILES beside them. *: point of attachment. Biotin = O=C1N[C@H]2[C@H](CS[C@H]2CCCCC(=O)*)N1; Lys(Me3) = C[N+](C)(C)CCCC[C@H](N)C(=O)O; Benzoyl(4-Br) = O=C(c1ccc(Br)cc1)*

Legend:
[1] = biological target: T1, Testis-specific chromodomain protein Y 1 (Homo sapiens) (UniProt Q9Y6F8); test: Binding affinity to recombinant human CDY1 by microarray based assay
T1 sequence (whole entry): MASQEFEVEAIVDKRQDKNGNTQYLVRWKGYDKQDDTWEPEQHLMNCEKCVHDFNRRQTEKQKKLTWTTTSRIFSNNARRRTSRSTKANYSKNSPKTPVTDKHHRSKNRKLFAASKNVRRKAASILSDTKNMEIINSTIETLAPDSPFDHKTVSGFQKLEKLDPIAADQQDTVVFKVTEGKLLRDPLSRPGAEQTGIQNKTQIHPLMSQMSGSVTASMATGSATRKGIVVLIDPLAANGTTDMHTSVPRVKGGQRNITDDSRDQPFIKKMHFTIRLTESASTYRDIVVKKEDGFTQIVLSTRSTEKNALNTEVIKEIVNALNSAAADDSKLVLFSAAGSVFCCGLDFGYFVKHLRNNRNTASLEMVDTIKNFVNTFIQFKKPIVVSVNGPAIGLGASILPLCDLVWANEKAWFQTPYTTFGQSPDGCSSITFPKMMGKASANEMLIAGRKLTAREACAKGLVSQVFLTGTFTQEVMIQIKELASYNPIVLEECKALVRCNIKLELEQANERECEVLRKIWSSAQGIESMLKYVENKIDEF

[2] = biological target: Mortality factor 4-like protein 1 (Homo sapiens) (UniProt Q9UBU8); test: Binding affinity to recombinant human MORF4L1 by microarray based assay
[3] = biological target: T2, Chromobox protein homolog 6 (Homo sapiens) (UniProt O95503); test: Binding affinity to recombinant human CBX6 by microarray based assay
T2 sequence (whole entry): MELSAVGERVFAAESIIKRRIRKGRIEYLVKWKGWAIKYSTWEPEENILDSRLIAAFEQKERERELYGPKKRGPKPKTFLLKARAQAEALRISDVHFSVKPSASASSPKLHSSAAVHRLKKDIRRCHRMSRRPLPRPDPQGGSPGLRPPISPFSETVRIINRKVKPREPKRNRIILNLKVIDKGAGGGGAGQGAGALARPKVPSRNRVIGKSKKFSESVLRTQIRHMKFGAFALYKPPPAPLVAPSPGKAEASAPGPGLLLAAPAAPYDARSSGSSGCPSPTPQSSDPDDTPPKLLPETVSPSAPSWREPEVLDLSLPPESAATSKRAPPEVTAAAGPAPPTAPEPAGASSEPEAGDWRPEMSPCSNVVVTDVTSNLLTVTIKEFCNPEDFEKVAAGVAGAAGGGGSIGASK

[4] = biological target: T3, Chromobox protein homolog 7 (Homo sapiens) (UniProt O95931); test: Binding affinity to recombinant human CBX7 by microarray based assay
T3 sequence (whole entry): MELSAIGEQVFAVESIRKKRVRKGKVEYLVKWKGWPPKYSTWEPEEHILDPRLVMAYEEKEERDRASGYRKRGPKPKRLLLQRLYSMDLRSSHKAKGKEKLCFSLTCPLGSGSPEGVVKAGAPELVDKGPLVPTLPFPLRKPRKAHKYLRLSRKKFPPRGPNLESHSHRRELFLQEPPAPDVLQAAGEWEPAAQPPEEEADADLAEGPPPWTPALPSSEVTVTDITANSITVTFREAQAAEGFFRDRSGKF

Measured: Activity

Mortality factor 4-like protein 1 (Homo sapiens), sequence (Q9UBU8 whole entry): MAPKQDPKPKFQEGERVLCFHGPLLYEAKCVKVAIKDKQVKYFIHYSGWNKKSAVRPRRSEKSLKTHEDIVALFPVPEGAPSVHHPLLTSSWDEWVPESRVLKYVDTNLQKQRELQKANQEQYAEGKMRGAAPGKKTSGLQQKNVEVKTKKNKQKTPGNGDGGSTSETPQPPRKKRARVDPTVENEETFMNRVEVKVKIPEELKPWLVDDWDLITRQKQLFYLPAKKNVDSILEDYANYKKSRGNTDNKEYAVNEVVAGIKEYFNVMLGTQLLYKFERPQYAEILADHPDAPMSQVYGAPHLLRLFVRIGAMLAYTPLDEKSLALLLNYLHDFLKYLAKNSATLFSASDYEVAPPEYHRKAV

CC(C)C[C@H](NC(=O)[C@H](CO)NC(=O)[C@H](CCCC[N+](C)(C)C)NC(=O)[C@H](Cc1ccc(O)cc1)NC(=O)[C@H](C)NC(=O)[C@H](Cc1ccccc1)NC(=O)c1ccc(Br)cc1)C(=O)N[C@@H](CCCCNC(=O)CCCC[C@@H]1SC[C@@H]2NC(=O)N[C@@H]21)C(N)=O ({Benzoyl(4-Br)}-FAY[Lys(Me3)]SLK(Biotin)-NH2)
active: [1] | [2] | [3] | [4]
